In this data set the test system is rodent lifetime carcinogenesis bioassay, tumor incidence TD50. Description: carcinogenic potency in animals, long-term in vivo studies, CPDB compilation (AID 1745844).
[1] abbreviates: mouse, strain B6C3F1, females, by gavage, site: liver, lesion: hepatocellular adenoma, dosed 104 weeks, study length 104 weeks.

The values below come from PubChem BioAssay AID1745844 (Carcinogenic Potency Database (CPDB), 2022).

As a reminder, the TD50 is the 50% point of the dose-response relation for the toxic effect studied.

Structures are written as SMILES. Calls of active or inactive are those of the source. How the calls were made is not given here.

Take `COc1ccc(C(=O)Nc2c(Cl)cncc2Cl)cc1OC1CCCC1`: the TD50 reads like this: (rat, strain IcoIbm:OFA (Sprague-Dawley derived), females, inhaled, site: nasal cavity, olfactory epithelium, lesion: carcinoma, dosed 102 weeks, study length 102 weeks) 24.6 mg/kg/day; (rat, strain IcoIbm:OFA (Sprague-Dawley derived), females, inhaled, site: nasal cavity, olfactory epithelium, lesion: malignant tumor, dosed 102 weeks, study length 102 weeks) 1.22 mg/kg/day; (rat, strain IcoIbm:OFA (Sprague-Dawley derived), females, inhaled, site: nasal cavity, olfactory epithelium, lesion: neuroblastoma, in situ, dosed 102 weeks, study length 102 weeks) 12.2 mg/kg/day; (rat, strain IcoIbm:OFA (Sprague-Dawley derived), females, inhaled, site: nasal cavity, olfactory epithelium, lesion: neuroblastoma, dosed 102 weeks, study length 102 weeks) 1.68 mg/kg/day; (rat, strain IcoIbm:OFA (Sprague-Dawley derived), females, inhaled, site: nasal cavity, olfactory epithelium, lesion: several types, types named in the paper, dosed 102 weeks, study length 102 weeks) 1.18 mg/kg/day; (rat, strain IcoIbm:OFA (Sprague-Dawley derived), females, inhaled, site: nasal cavity, olfactory region, Bowman's gland, lesion: adenocarcinoma, dosed 102 weeks, study length 102 weeks) 24.6 mg/kg/day. Moreover, the TD50 is 24.7 mg/kg/day (rat, strain IcoIbm:OFA (Sprague-Dawley derived), females, inhaled, site: nasal cavity, olfactory region, Bowman's gland, lesion: adenoma, dosed 102 weeks, study length 102 weeks); 51.5 mg/kg/day (rat, strain IcoIbm:OFA (Sprague-Dawley derived), males, inhaled, site: nasal cavity, olfactory epithelium, lesion: carcinoma, dosed 104 weeks, study length 104 weeks); 2.48 mg/kg/day (rat, strain IcoIbm:OFA (Sprague-Dawley derived), males, inhaled, site: nasal cavity, olfactory epithelium, lesion: malignant tumor, dosed 104 weeks, study length 104 weeks); 17 mg/kg/day (rat, strain IcoIbm:OFA (Sprague-Dawley derived), males, inhaled, site: nasal cavity, olfactory epithelium, lesion: neuroblastoma, in situ, dosed 104 weeks, study length 104 weeks); 3.75 mg/kg/day (rat, strain IcoIbm:OFA (Sprague-Dawley derived), males, inhaled, site: nasal cavity, olfactory epithelium, lesion: neuroblastoma, dosed 104 weeks, study length 104 weeks); 2.22 mg/kg/day (rat, strain IcoIbm:OFA (Sprague-Dawley derived), males, inhaled, site: nasal cavity, olfactory epithelium, lesion: several types, types named in the paper, dosed 104 weeks, study length 104 weeks). The TD50 reads like this: (rat, strain IcoIbm:OFA (Sprague-Dawley derived), males, inhaled, site: nasal cavity, olfactory region, Bowman's gland, lesion: adenocarcinoma, dosed 104 weeks, study length 104 weeks) 25.6 mg/kg/day; (rat, strain IcoIbm:OFA (Sprague-Dawley derived), males, inhaled, site: nasal cavity, olfactory region, Bowman's gland, lesion: adenoma, dosed 104 weeks, study length 104 weeks) 12.7 mg/kg/day.
In the case of `Cn1cc(C(=O)[C@@H]2CCc3nc[nH]c3C2)c2ccccc21`, the carcinogen call runs as follows: under setting [1], “negative (inactive)”; (mouse, strain B6C3F1, females, by gavage, site: lung, lesion: adenoma, dosed 104 weeks, study length 104 weeks) “negative (inactive)”; (mouse, strain B6C3F1, females, by gavage, site: lung, lesion: carcinoma, dosed 104 weeks, study length 104 weeks) “negative (inactive)”; (mouse, strain B6C3F1, males, by gavage, site: liver, lesion: hepatocellular adenoma, dosed 104 weeks, study length 104 weeks) “negative (inactive)”; (mouse, strain B6C3F1, males, by gavage, site: liver, lesion: hepatocellular carcinoma, dosed 104 weeks, study length 104 weeks) “negative (inactive)”; (mouse, strain B6C3F1, males, by gavage, site: lung, lesion: adenoma, dosed 104 weeks, study length 104 weeks) “negative (inactive)”. In addition, the carcinogen call by setting is: (mouse, strain B6C3F1, males, by gavage, site: lung, lesion: carcinoma, dosed 104 weeks, study length 104 weeks) “negative (inactive)”; (rat, strain Fischer 344, females, by gavage, site: liver, lesion: hepatocellular adenoma, dosed 104 weeks, study length 104 weeks) “negative (inactive)”; (rat, strain Fischer 344, males, by gavage, site: liver, lesion: hepatocellular adenoma, dosed 104 weeks, study length 104 weeks) “negative (inactive)”. Also, where the note is “mouse, strain B6C3F1, females, by gavage, site: liver, lesion: hepatocellular carcinoma, dosed 104 weeks, study length 104 weeks”, the TD50 was 1040 mg/kg/day (inactive).
Take `[Cl][Hg]`: the carcinogen call (mouse, strain BALB/c, males, in feed, site: liver, lesion: one or several types, types not named, dosed 60 weeks, study length 104 weeks) was “negative (inactive)” and the carcinogen call (mouse, strain BALB/c, males, in feed, site: lung, lesion: one or several types, types not named, dosed 60 weeks, study length 104 weeks) was “negative (inactive)”.
`CC(=O)OCC(=O)[C@@]12N=C(C)O[C@@H]1C[C@H]1[C@@H]3CCC4=CC(=O)C=C[C@]4(C)[C@H]3[C@@H](O)C[C@@]12C` had a TD50 (rat, strain Charles River CD (Sprague-Dawley), females, in feed, site: head, lesion: osteosarcoma, dosed 104 weeks, study length 104 weeks) of 66.8 mg/kg/day. Further, the carcinogen call was “positive” (rat, strain Charles River CD (Sprague-Dawley), males, in feed, site: bone, lesion: several types, types named in the paper, dosed 104 weeks, study length 104 weeks) and “positive” (rat, strain Charles River CD (Sprague-Dawley), males, in feed, site: head, lesion: osteosarcoma, dosed 104 weeks, study length 104 weeks).
As to `Nc1nc(N)nc(-c2ccccc2)n1`, the TD50 runs as follows: (mouse, strain CD-1 HaM/ICR, females, in feed, site: any site (literature study), lesion: several types, types named in the paper, dosed 77 weeks, study length 94 weeks) 932 mg/kg/day (inactive); (mouse, strain CD-1 HaM/ICR, females, in feed, site: liver, lesion: several types, types named in the paper, dosed 77 weeks, study length 94 weeks) 2040 mg/kg/day (inactive); (mouse, strain CD-1 HaM/ICR, females, in feed, site: lung, lesion: several types, types named in the paper, dosed 77 weeks, study length 94 weeks) 9340 mg/kg/day (inactive); (mouse, strain CD-1 HaM/ICR, males, in feed, site: any site (literature study), lesion: several types, types named in the paper, dosed 73 weeks, study length 94 weeks) 439 mg/kg/day (inactive); (mouse, strain CD-1 HaM/ICR, males, in feed, site: liver, lesion: several types, types named in the paper, dosed 73 weeks, study length 94 weeks) 3200 mg/kg/day (inactive); (mouse, strain CD-1 HaM/ICR, males, in feed, site: lung, lesion: several types, types named in the paper, dosed 73 weeks, study length 94 weeks) 304 mg/kg/day (inactive). For the same compound, the TD50 (rat, strain Charles River CD (Sprague-Dawley), males, in feed, site: any site (literature study), lesion: several types, types named in the paper, dosed 77 weeks, study length 94 weeks) is 16.3 mg/kg/day (inactive). Also, the carcinogen call (rat, strain Charles River CD (Sprague-Dawley), males, in feed, site: liver, lesion: several types, types named in the paper, dosed 77 weeks, study length 94 weeks) is “negative (inactive)”.
Take `COC1COC(OC2COC(OC3COC(OC4COC(OC)C(OS(=O)(=O)O)C4OS(=O)(=O)O)C(OC4OC(C(=O)O)C(OC)C(OS(=O)(=O)O)C4OS(=O)(=O)O)C3OS(=O)(=O)O)C(OS(=O)(=O)O)C2OS(=O)(=O)O)C(OS(=O)(=O)O)C1OS(=O)(=O)O` (centres undefined): the TD50 (mouse, strain B6C3F1, females, by gavage, site: all sites, lesion: hemangioma + hemangiosarcoma, dosed 104 weeks, study length 104 weeks) was found to be 1700 mg/kg/day; the TD50 (mouse, strain B6C3F1, females, by gavage, site: all sites, lesion: hemangioma, dosed 104 weeks, study length 104 weeks) stood at 4340 mg/kg/day; the TD50 (mouse, strain B6C3F1, females, by gavage, site: all sites, lesion: malignant lymphoma, dosed 104 weeks, study length 104 weeks) is 927 mg/kg/day; the TD50 (mouse, strain B6C3F1, females, by gavage, site: any site (literature study), lesion: several types, types named in the paper, dosed 104 weeks, study length 104 weeks) came to 660 mg/kg/day; the TD50 (mouse, strain B6C3F1, females, by gavage, site: liver, lesion: hemangiosarcoma + hepatocellular adenoma + hepatocellular carcinoma, dosed 104 weeks, study length 104 weeks) was determined as 663 mg/kg/day; the TD50 (mouse, strain B6C3F1, females, by gavage, site: liver, lesion: hemangiosarcoma, dosed 104 weeks, study length 104 weeks) was 3160 mg/kg/day. Moreover, the TD50 (mouse, strain B6C3F1, females, by gavage, site: liver, lesion: hepatocellular adenoma + hepatoblastoma + hepatocellular carcinoma, dosed 104 weeks, study length 104 weeks) was 867 mg/kg/day; the TD50 (mouse, strain B6C3F1, females, by gavage, site: liver, lesion: hepatocellular adenoma + hepatocellular carcinoma, dosed 104 weeks, study length 104 weeks) is 867 mg/kg/day; the TD50 under setting [1] is 991 mg/kg/day; the TD50 (mouse, strain B6C3F1, males, by gavage, site: all sites, lesion: hemangiosarcoma, dosed 104 weeks, study length 104 weeks) was found to be 1340 mg/kg/day; the TD50 (mouse, strain B6C3F1, males, by gavage, site: any site (literature study), lesion: several types, types named in the paper, dosed 104 weeks, study length 104 weeks) is 297 mg/kg/day; the TD50 (mouse, strain B6C3F1, males, by gavage, site: liver, lesion: hemangiosarcoma, dosed 104 weeks, study length 104 weeks) is 1090 mg/kg/day. Moreover, the TD50 was 538 mg/kg/day (mouse, strain B6C3F1, males, by gavage, site: liver, lesion: hepatocellular adenoma + hepatoblastoma + hepatocellular carcinoma, dosed 104 weeks, study length 104 weeks); 499 mg/kg/day (mouse, strain B6C3F1, males, by gavage, site: liver, lesion: hepatocellular adenoma + hepatocellular carcinoma, dosed 104 weeks, study length 104 weeks); 8000 mg/kg/day (mouse, strain B6C3F1, males, by gavage, site: lung, lesion: alveolar/bronchiolar adenoma + alveolar/bronchiolar carcinoma, dosed 104 weeks, study length 104 weeks); 1980 mg/kg/day (inactive) (rat, strain Fischer 344, females, by gavage, site: any site (literature study), lesion: several types, types named in the paper, dosed 104 weeks, study length 104 weeks). The carcinogen call (rat, strain Fischer 344, males, by gavage, site: any site (literature study), lesion: several types, types named in the paper, dosed 104 weeks, study length 104 weeks) was “negative (inactive)”.
For the compound `O=NN(CC(=O)O)CC(=O)O`, the TD50 (rat, strain MRC, females, in drinking water, site: any site (literature study), lesion: several types, types named in the paper, dosed 72 weeks, study length 104 weeks) was 63.9 mg/kg/day (inactive); the TD50 (rat, strain MRC, males, in drinking water, site: any site (literature study), lesion: several types, types named in the paper, dosed 72 weeks, study length 104 weeks) was 76 mg/kg/day (inactive); the TD50 (rat, strain MRC, males, in drinking water, site: pituitary gland, lesion: one or several types, types not named, dosed 72 weeks, study length 104 weeks) was 66.9 mg/kg/day (inactive).
For the compound `N#[N+]c1cc(CCN)ccc1[O-]`, the TD50 (rat, strain F344/DuCrj, males, in drinking water, site: oral cavity, lesion: squamous-cell carcinoma, dosed 116 weeks, study length 116 weeks) is 37.6 mg/kg/day.
For `O=[N+]([O-])c1cccc2cccnc12`, the TD50 reads like this: (rat, strain Fischer 344, females, in feed, site: forestomach, lesion: squamous-cell carcinoma, dosed 104 weeks, study length 104 weeks) 32.8 mg/kg/day; (rat, strain Fischer 344, females, in feed, site: forestomach, lesion: squamous-cell papilloma, dosed 104 weeks, study length 104 weeks) 9.55 mg/kg/day; (rat, strain Fischer 344, males, in feed, site: forestomach, lesion: squamous-cell carcinoma, dosed 104 weeks, study length 104 weeks) 24.9 mg/kg/day; (rat, strain Fischer 344, males, in feed, site: forestomach, lesion: squamous-cell papilloma, dosed 104 weeks, study length 104 weeks) 10.1 mg/kg/day. The carcinogen call runs as follows: (rat, strain Fischer 344, females, in feed, site: liver, lesion: hyperplastic nodule, dosed 104 weeks, study length 104 weeks) “negative (inactive)”; (rat, strain Fischer 344, males, in feed, site: liver, lesion: hyperplastic nodule, dosed 104 weeks, study length 104 weeks) “negative (inactive)”.
